Laboratory results as given in patent US10219990B2, “Solubilizing agents for UV filters in cosmetic formulations” (BASF SE, priority 2014, dated 2019).

Test: Solubility tests of UV filters in solubilizing agents
Type: physicochemical
Conditions: UV filter (BPH-02); stirred seven days at 25° C.; UV/Vis-spectrometry
Procedure: 2 ml of the solubilizing agent are filled into a 20 ml vial with cap. Afterwards 0.02 g (1%) of the respective substance (UV Filter) are weighed and added to the solvent. The vial is placed into a thermostat-controlled water bath, wherein the suspension/solution is stirred during seven days at 25° C.
If the substance added to the solubilizing agent is fully soluble, additional substance is added until precipitation can be observed.
After seven days, the sample is centrifuged for 30 minutes at 13000 rpm at 25° C. The supernatant is transferred into a small beaker. In case the sample is still turbid, it is filtered through a 0.2 μm non-steril Membrex 25 PET filter. Clear solutions must not be filtered. When a clear solution is obtained, the concentration of the substance is determined with UV/Vis-spectrometry. For this purpose, the sample may be diluted with a suitable solvent or, in case of lower concentrations, may be measured as it s.
The concentration of the UV-spectroscopic results is measured with the extinction coefficient, which is determined independently with a solvent of similar polarity like that one used for dilution of the saturated solutions.
The solubility can be calculated using the Lambert-Beer-Law equation.

Row | Solubility [%] of UV filter compound of formula (BPH-02) in solubilizing agent | Molecule
1 | >40% | CCCCCCCCCC(=O)N(C)C [Spectrasolv DMDA, reference compound]
2 | 11.2% | C 23-Guerbet-monolactate
3 | 12.2% | Iso-C18-monolactate

Same assay, conditions: UV filter (HTP-02); stirred seven days at 25° C.; UV/Vis-spectrometry

Row | Solubility [%] of UV filter compound of formula (HTP-02) in solubilizing agent | Molecule
4 | 40% | CCCCCCCCCC(=O)N(C)C [Spectrasolv DMDA, reference compound]
5 | 2.9% | C 23-Guerbet-monolactate
6 | 3.3% | Iso-C18-monolactate

Same assay, conditions: UV filter (TAT-02); stirred seven days at 25° C.; UV/Vis-spectrometry

Row | Solubility [%] of UV filter compound of formula (TAT-02) in solubilizing agent | Molecule
7 | 23% | CCCCCCCCCC(=O)N(C)C [Spectrasolv DMDA, reference compound]
8 | 11.9% | C 23-Guerbet-monolactate
9 | 13.4% | Iso-C18-monolactate
